Test results: ChEMBL document CHEMBL1201862, “PubChem BioAssay data set” (2004)
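A five-concentration, 48-hour dose response in 96-well plates underlies each endpoint, interpolated linearly between surrounding concentrations. GI50 marks 50% less growth.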 Active and inactive are the calls of the source. No stated cut-off is given here; in the data, active = GI50 up to about 1.1 µM and inactive = higher.

Experiments:
Assay in all cases: NCI-60 cell line screen, 48 h
786-0 = test system: 786-0
A498 = test system: A498
HCC 2998 = test system: HCC 2998
IGROV-1 = test system: IGROV-1
KM12 = test system: KM12
LOX IMVI = test system: LOX IMVI
NCI-H226 = test system: NCI-H226
NCI-H23 = test system: NCI-H23
NCI-H522 = test system: NCI-H522
RXF 393 = test system: RXF 393
SF-295 = test system: SF-295
SK-MEL-2 = test system: SK-MEL-2
SK-OV-3 = test system: SK-OV-3
SNB-75 = test system: SNB-75
UACC-257 = test system: UACC-257
OVCAR-8 = test system: OVCAR-8
RPMI-8226 = test system: RPMI-8226
SN12C = test system: SN12C
SR = test system: SR

Row | SMILES | GI50 (786-0) | GI50 (A498) | GI50 (HCC 2998) | GI50 (IGROV-1) | GI50 (KM12) | GI50 (LOX IMVI) | GI50 (NCI-H226) | GI50 (NCI-H23) | GI50 (NCI-H522) | GI50 (RXF 393) | GI50 (SF-295) | GI50 (SK-MEL-2) | GI50 (SK-OV-3) | GI50 (SNB-75) | GI50 (UACC-257) | GI50 (OVCAR-8) | GI50 (RPMI-8226) | GI50 (SN12C) | GI50 (SR)
1 | COc1ccc(NC(=O)C(=O)Cc2nc3ccc([N+](=O)[O-])cc3nc2O)c(OC)c1 | > 100 µM (inactive) | 44.6 µM (inactive) | > 100 µM (inactive) | > 100 µM (inactive) | > 100 µM (inactive) | 87.9 µM (inactive) | > 100 µM (inactive) | > 100 µM (inactive) | 83.4 µM (inactive) | > 100 µM (inactive) | > 100 µM (inactive) | > 100 µM (inactive) | > 100 µM (inactive) | > 100 µM (inactive) | > 100 µM (inactive) | – | – | – | –
2 | N#CCCN(CCC#N)c1ccc(C(=O)NN)cc1 | > 100 µM (inactive) | > 100 µM (inactive) | > 100 µM (inactive) | > 100 µM (inactive) | > 100 µM (inactive) | > 100 µM (inactive) | > 100 µM (inactive) | > 100 µM (inactive) | > 100 µM (inactive) | > 100 µM (inactive) | > 100 µM (inactive) | – | > 100 µM (inactive) | > 100 µM (inactive) | > 100 µM (inactive) | > 100 µM (inactive) | > 100 µM (inactive) | > 100 µM (inactive) | –
3 | CN[C@@H](C)[C@H](NC)c1ccccc1 | > 100 µM (inactive) | – | > 100 µM (inactive) | > 100 µM (inactive) | > 100 µM (inactive) | > 100 µM (inactive) | > 100 µM (inactive) | > 100 µM (inactive) | > 100 µM (inactive) | > 100 µM (inactive) | > 100 µM (inactive) | – | > 100 µM (inactive) | > 100 µM (inactive) | > 100 µM (inactive) | > 100 µM (inactive) | > 100 µM (inactive) | > 100 µM (inactive) | –
4 | CCCCCCCCCCCC(=O)OC(COC(N)=O)COc1ccc(Cl)cc1 (stereo unspecified) | 35.8 µM (inactive) | 65.9 µM (inactive) | 30.5 µM (inactive) | 27.5 µM (inactive) | 25.8 µM (inactive) | 23.2 µM (inactive) | 17.3 µM (inactive) | 20.7 µM (inactive) | 17.1 µM (inactive) | 21 µM (inactive) | 20.3 µM (inactive) | 24.5 µM (inactive) | > 100 µM (inactive) | 33.4 µM (inactive) | 19.1 µM (inactive) | 17.7 µM (inactive) | 22.1 µM (inactive) | 26.7 µM (inactive) | –
5 | CCC/N=C1\S/C(=C/c2ccc(OC)c(OC)c2)C(=O)N1c1ccccc1 | 13.1 µM (inactive) | 21.5 µM (inactive) | > 100 µM (inactive) | 80.2 µM (inactive) | > 100 µM (inactive) | > 100 µM (inactive) | 41.8 µM (inactive) | 76.7 µM (inactive) | 40.6 µM (inactive) | – | 11.3 µM (inactive) | 31.8 µM (inactive) | 11.2 µM (inactive) | – | 76.7 µM (inactive) | 82.2 µM (inactive) | 43.2 µM (inactive) | 54.8 µM (inactive) | 51.8 µM (inactive)
6 | C/C(=N\Nc1nc2ccccc2[nH]1)c1cnccn1 | 0.263 µM (active) | 1.98 µM (inactive) | 19.6 µM (inactive) | 0.139 µM (active) | 1.12 µM (active) | 0.361 µM (active) | 0.441 µM (active) | 1.71 µM (inactive) | 0.169 µM (active) | 0.392 µM (active) | 1.77 µM (inactive) | 1.45 µM (inactive) | 0.607 µM (active) | 3.61 µM (inactive) | 2.94 µM (inactive) | 0.8 µM (active) | 0.533 µM (active) | 1.25 µM (inactive) | –
7 | CCc1cccc(C)c1NC(=O)CC(=O)NNC(N)=S | > 100 µM (inactive) | – | > 100 µM (inactive) | – | > 100 µM (inactive) | > 100 µM (inactive) | > 100 µM (inactive) | > 100 µM (inactive) | > 100 µM (inactive) | > 100 µM (inactive) | > 100 µM (inactive) | – | > 100 µM (inactive) | > 100 µM (inactive) | > 100 µM (inactive) | > 100 µM (inactive) | > 100 µM (inactive) | > 100 µM (inactive) | –
8 | COc1ccc2cc(C(=O)c3ccccc3C(=O)O)ccc2c1 | > 100 µM (inactive) | > 100 µM (inactive) | > 100 µM (inactive) | > 100 µM (inactive) | > 100 µM (inactive) | > 100 µM (inactive) | > 100 µM (inactive) | > 100 µM (inactive) | > 100 µM (inactive) | > 100 µM (inactive) | > 100 µM (inactive) | > 100 µM (inactive) | > 100 µM (inactive) | > 100 µM (inactive) | > 100 µM (inactive) | > 100 µM (inactive) | – | > 100 µM (inactive) | > 100 µM (inactive)
9 | CC(=O)NC1C(=O)CC(c2ccccc2)N(C)C1c1ccccc1 (stereo unspecified) | > 100 µM (inactive) | > 100 µM (inactive) | > 100 µM (inactive) | > 100 µM (inactive) | > 100 µM (inactive) | 6.17 µM (inactive) | > 100 µM (inactive) | > 100 µM (inactive) | > 100 µM (inactive) | > 100 µM (inactive) | > 100 µM (inactive) | > 100 µM (inactive) | 26.3 µM (inactive) | > 100 µM (inactive) | > 100 µM (inactive) | > 100 µM (inactive) | – | > 100 µM (inactive) | > 100 µM (inactive)
10 | COc1ccc([Se]c2ccc(OC)cc2)cc1 | > 100 µM (inactive) | 99.1 µM (inactive) | > 100 µM (inactive) | > 100 µM (inactive) | > 100 µM (inactive) | > 100 µM (inactive) | 17.4 µM (inactive) | 56.2 µM (inactive) | 27.2 µM (inactive) | 19.5 µM (inactive) | > 100 µM (inactive) | > 100 µM (inactive) | > 100 µM (inactive) | 19.3 µM (inactive) | 48.2 µM (inactive) | > 100 µM (inactive) | 24.4 µM (inactive) | > 100 µM (inactive) | –
11 | O=C(O)c1ccccc1NC(=O)C1CCCCC1 | > 100 µM (inactive) | 31.8 µM (inactive) | > 100 µM (inactive) | > 100 µM (inactive) | > 100 µM (inactive) | > 100 µM (inactive) | > 100 µM (inactive) | – | – | – | > 100 µM (inactive) | > 100 µM (inactive) | > 100 µM (inactive) | > 100 µM (inactive) | > 100 µM (inactive) | > 100 µM (inactive) | > 100 µM (inactive) | > 100 µM (inactive) | –
12 | Cc1cccc(C(C)(C)C)c1NC(=O)C(=O)C(C(=O)/C=C\c1ccccc1)C1OC(=O)c2ccccc21 (stereo unspecified) | > 100 µM (inactive) | > 100 µM (inactive) | > 100 µM (inactive) | > 100 µM (inactive) | > 100 µM (inactive) | > 100 µM (inactive) | > 100 µM (inactive) | > 100 µM (inactive) | > 100 µM (inactive) | > 100 µM (inactive) | > 100 µM (inactive) | – | > 100 µM (inactive) | > 100 µM (inactive) | > 100 µM (inactive) | > 100 µM (inactive) | > 100 µM (inactive) | > 100 µM (inactive) | > 100 µM (inactive)
13 | C1=C2/CC[C@H](Sc3ccccc3)C2C2(CCCCC/1)OCCO2 (stereo partly specified) | 42.4 µM (inactive) | – | 23.5 µM (inactive) | 27.9 µM (inactive) | 26.5 µM (inactive) | 15.2 µM (inactive) | 23.6 µM (inactive) | 16.2 µM (inactive) | – | 15.7 µM (inactive) | 27.5 µM (inactive) | 15.8 µM (inactive) | – | 23.9 µM (inactive) | 15.9 µM (inactive) | 39.3 µM (inactive) | 17.6 µM (inactive) | 32.3 µM (inactive) | 10.7 µM (inactive)
14 | C[C@@H]1OC2(O)[C@H]3CCCN3S(=O)(=O)CCN2C1=O (stereo partly specified) | > 100 µM (inactive) | > 100 µM (inactive) | > 100 µM (inactive) | > 100 µM (inactive) | > 100 µM (inactive) | > 100 µM (inactive) | > 100 µM (inactive) | > 100 µM (inactive) | > 100 µM (inactive) | > 100 µM (inactive) | > 100 µM (inactive) | – | > 100 µM (inactive) | > 100 µM (inactive) | > 100 µM (inactive) | > 100 µM (inactive) | > 100 µM (inactive) | > 100 µM (inactive) | > 100 µM (inactive)
15 | COC(=O)c1c2c(cc3c1CC1(Cc4cc5c(c(C=O)c4C1)CCCC5)C3)CCCC2 (stereo unspecified) | > 100 µM (inactive) | 66.8 µM (inactive) | 39 µM (inactive) | 81.5 µM (inactive) | – | > 100 µM (inactive) | 80 µM (inactive) | 57.9 µM (inactive) | 32.1 µM (inactive) | 32.7 µM (inactive) | > 100 µM (inactive) | 10.2 µM (inactive) | > 100 µM (inactive) | – | 50.5 µM (inactive) | 87.5 µM (inactive) | > 100 µM (inactive) | 70 µM (inactive) | 36.8 µM (inactive)
16 | CN(C)c1ccc(/C=C2\CNC/C(=C\c3ccc(N(C)C)cc3)C2=O)cc1 | 16.8 µM (inactive) | 17.6 µM (inactive) | 29.3 µM (inactive) | 22 µM (inactive) | > 10 µM (inactive) | 18.8 µM (inactive) | 32.7 µM (inactive) | > 100 µM (inactive) | – | 24 µM (inactive) | 76.4 µM (inactive) | – | > 100 µM (inactive) | 11.1 µM (inactive) | 22.5 µM (inactive) | 24.2 µM (inactive) | 54.6 µM (inactive) | 26.5 µM (inactive) | 8.81 µM (inactive)
